In patent publication US20240199647A1, “ANTI-VIRAL COMPOUNDS” (Aligos Therapeutics, Inc., priority 2022, published 2024) one finds EC50, CC50 and IC50 data, which are given here for eleven compounds.

Each structure is given as a SMILES string. pEC50, pIC50: −log10 of the molar value. Where two headings read alike, the source gives them in different places.

For data set [1], the system named is SARS-CoV-2 B.1.1.7 lineage. Briefly: microbe, parasite or virus in culture. Type of data set: cell-based. Particulars: Severe acute respiratory syndrome coronavirus 2, Table C, SARS-CoV-2 B.1.1.7 in A549-dual_ACE2_TMPRSS2 cells, read-out: A549-dual_ACE2_TMPRSS2 (EC50).
Data set [2] deals with human beta-coronavirus OC43. Briefly: OC43 Coronavirus Assay in HeLa cells (antiviral, cytopathic effect, cell-titer-glo). As to conditions: Betacoronavirus 1, OC43, HeLa, Table B; OC43 coronavirus in HeLa cells, class symbols; read-out: EC50. It counts as cell-based. A general note: Cytopathic effects are the visible damage that an infection or toxin causes in cultured cells.

Data set [3] is described as follows: Cytotoxicity in HeLa cells without addition of OC43 virus (in parallel). As to conditions: human, HeLa cells, without OC43 virus.
The next data set concerns the target SARS-Cov-2 3CLpro (Severe acute respiratory syndrome coronavirus 2, UniProt P0DTD1). The experiment in a line: biochemical. As to conditions: Table A, class symbols, read-out: SARS-Cov-2 (IC50).
A further data set in a line: in vitro. Particulars: human.

Broadly, the pEC50 is −log10 of the EC50, conventionally taken in molar units. One may read the pIC50 as the IC50 on a negative log10 scale, so that one unit is a factor of ten. On to `CN(C(=O)[C@H](CC1CC1)NC(=O)C(F)(F)F)[C@@H](CC1CC1)C(=O)N1C[C@@]2(C[C@H]1C#N)Oc1c(F)cccc1CNC2=O` [Compound 168], for which the pEC50 in data set [1] (class symbols) and in data set [2] was more than 7.00 each time. The compound also gave a CC50 at 6 days in data set [3] of more than 10000 nM. Further, the pIC50 on SARS-Cov-2 3CLpro was more than 7.70. Besides, the CC50 in the data set “in vitro” is more than 1000 nM.
Take `C[C@H](NC(=O)C1(F)CC1)C(=O)N(C)[C@@H](CC1CC1)C(=O)N1C[C@@]2(C[C@H]1C#N)Oc1cccnc1NC2=O` [Compound 169]: the pEC50 was 6.00 to 7.00 in data set [1] (class symbols) and more than 7.00 in data set [2]. This compound displayed a CC50 at 6 days in data set [3] of more than 10000 nM. The pIC50 on SARS-Cov-2 3CLpro was more than 7.70. Also, in the data set “in vitro”, the CC50 was more than 1000 nM.
In the case of `C[C@H](NC(=O)C(F)(F)C(F)(F)F)C(=O)N(C)[C@@H](CC1CC1)C(=O)N1C[C@@]2(C[C@H]1C#N)Oc1cccnc1NC2=O` [Compound 170], the pEC50 in data set [1] (class symbols) and in data set [2] was more than 7.00 each time. For the same compound, the CC50 at 6 days in data set [3] is more than 10000 nM. Besides, the pIC50 on SARS-Cov-2 3CLpro was more than 7.70. Also, in “in vitro”, the CC50 is more than 1000 nM.
For the compound `CN(C(=O)c1cnc(C(F)(F)F)[nH]1)[C@@H](CC1CC1)C(=O)N1C[C@@]2(C[C@H]1C#N)Oc1cc(F)cc(F)c1NC2=O` [Compound 171], the pEC50 is less than 6.00 in data set [1] (cells given as a bound) and 5.00 to 6.00 in data set [2]. The CC50 at 6 days in data set [3] is more than 10000 nM. Moreover, the pIC50 at SARS-Cov-2 3CLpro was 6.70 to 7.70. Further, the CC50 in “in vitro” is more than 1000 nM.
Regarding `CN(C(=O)[C@@H](CC1CC1)NC(=O)C(F)(F)F)[C@@H](CC1CC1)C(=O)N1C[C@@]2(C[C@H]1C#N)Oc1cccnc1NC2=O` [Compound 172], the pEC50 in data set [1] (class symbols) and in data set [2] was 6.00 to 7.00 in each case. In data set [3], this compound displayed a CC50 at 6 days of more than 10000 nM. The pIC50 on SARS-Cov-2 3CLpro was more than 7.70. This compound also yielded a CC50 in “in vitro” of more than 1000 nM.
In the case of `CN(C(=O)C1(NC(=O)C(F)(F)F)CCCCC1)[C@@H](CC1CC1)C(=O)N1C[C@@]2(C[C@H]1C#N)Oc1cccnc1NC2=O` [Compound 173], the pEC50 in data set [1] (cells given as a bound) was less than 6.00; in data set [2], 5.00 to 6.00. In data set [3], this compound had a CC50 at 6 days of more than 10000 nM. Moreover, the pIC50 on SARS-Cov-2 3CLpro was 5.70 to 6.70. Moreover, the CC50 in the data set “in vitro” is more than 1000 nM.
In the case of `C[C@H](NC(=O)C(F)(F)Cl)C(=O)N(C)[C@@H](CC1CC1)C(=O)N1C[C@@]2(CC1C#N)Oc1cccnc1NC2=O` (stereo partly shown) [Compound 174], the pEC50 in data set [1] (class symbols) and in data set [2] was more than 7.00 each time. The CC50 at 6 days in data set [3] was more than 10000 nM. Besides, the pIC50 on SARS-Cov-2 3CLpro was more than 7.70. For the same compound, the CC50 in the data set “in vitro” is more than 1000 nM.
For `CN(C(=O)[C@H](CC1CC1)NS(=O)(=O)C1CC1)[C@@H](CC1CC1)C(=O)N1C[C@@]2(C[C@H]1C#N)Oc1ccccc1CNC2=O` [Compound 175], the pEC50 in data set [1] (class symbols) was 6.00 to 7.00; in data set [2], more than 7.00. Moreover, the CC50 at 6 days in data set [3] was more than 10000 nM. In addition, the pIC50 at SARS-Cov-2 3CLpro is more than 7.70. The compound also had a CC50 in “in vitro” of more than 1000 nM.
On to `CN(C(=O)[C@H](CC1CC1)NC(=O)C1(F)CC1)[C@@H](CC1CC1)C(=O)N1C[C@@]2(CC1C#N)Oc1ccccc1CNC2=O` (stereo partly shown) [Compound 176], for which the pEC50 in data set [1] (class symbols) and in data set [2] was more than 7.00 in each case. The same compound yielded a CC50 at 6 days in data set [3] of more than 10000 nM. The pIC50 at SARS-Cov-2 3CLpro is more than 7.70. For the same compound, in “in vitro”, the CC50 was more than 1000 nM.
With `CC(C)[C@H](NC(=O)C(F)(F)F)C(=O)N(C)[C@@H](CC1CC1)C(=O)N1C[C@@]2(C[C@H]1C#N)Oc1cccnc1NC2=O` [Compound 177], the pEC50 in data set [1] (class symbols) and in data set [2] was 6.00 to 7.00 in each case. Besides, the CC50 at 6 days in data set [3] was more than 10000 nM. For the same compound, the pIC50 on SARS-Cov-2 3CLpro is more than 7.70. This compound displayed a CC50 in the data set “in vitro” of more than 1000 nM.
Turning to `CN(C(=O)[C@H](CC1CC1)NS(=O)(=O)C1CC1)[C@@H](CC1CC1)C(=O)N1C[C@@]2(C[C@H]1C#N)Oc1cccnc1NC2=O` [Compound 178], the results for the negative-log EC50 (pEC50) in data set [1] (class symbols) and in data set [2] were 6.00 to 7.00 and more than 7.00, respectively. Further, in data set [3], the CC50 at 6 days is more than 10000 nM. The pIC50 at SARS-Cov-2 3CLpro was more than 7.70. For the same compound, the CC50 in “in vitro” is more than 1000 nM.
